Reference: patent publication US5086042A, “Peptides with sulfate ester groups” (Fisons Corporation, priority 1989, dated 1992)
Non-standard residues stand in square brackets, D forms with d. Residues, ends and D or L forms follow the SMILES beside them. sY = N[C@@H](Cc1ccc(OS(=O)(=O)O)cc1)C(=O)O

System: Male Sprague-Dawley rats
Type: in vivo
Details: rat, intraperitoneal; for % FEEDING INHIBITION 0.5 hr / % FEEDING INHIBITION 3 hr: 30 μg/kg, vs saline controls; for % FEEDING INHIBITION 0.5 hr / % FEEDING INHIBITION 0.5 hr (values marked *): 0.5 hr feeding period; for % FEEDING INHIBITION 3 hr / % FEEDING INHIBITION 3 hr (values marked *): 3 hr feeding period; for % FEEDING INHIBITION 3 hr: IA means inactive; for % FEEDING INHIBITION 3 hr (values marked *) / % FEEDING INHIBITION 0.5 hr (values marked *): 300 μg/kg, <10% inhibition at 30 μg/kg
Protocol: The peptides of this invention have the ability to inhibit feeding activity in mammals. As a result they have utility in the prevention and treatment of obesity.
Male Sprague-Dawley rats (weighing 300-350 g) are individually caged and maintained on a 12 hr. light, dark cycle and trained for at least 14 days to feed during a three hr period of the dark cycle but not the 21 hours preceding that three hr period. The day of the study, rats are dosed intraperitoneally with saline (controls) or test compound (dissolved in saline; usually at a concentration of 0.3 to 300 micrograms of test compound per kg of rat weight). Food is introduced 10 minutes after administration of saline or test compound. […] The % feeding inhibition for the 1/2 hr and 3 hr feeding periods obtained by administering a dose of 30 μg/kg of test compound is given in Table 2 for CCK-8 and various compounds of the invention. For example, the % feeding inhibition obtained with CCK-8 (first line of Table 2) was 70% for the 1/2 hr feeding period and 25% for the 3-hour period.

Row | Structure (SMILES) | % FEEDING INHIBITION 0.5 hr [%] | % FEEDING INHIBITION 3 hr [%] | % FEEDING INHIBITION 3 hr (values marked *) [%] | % FEEDING INHIBITION 0.5 hr (values marked *) [%]
1 | CSCC[C@H](NC(=O)[C@H](Cc1ccc(OS(=O)(=O)O)cc1)NC(=O)[C@@H](N)CC(=O)O)C(=O)NCC(=O)N[C@@H](Cc1c[nH]c2ccccc12)C(=O)N[C@@H](CCSC)C(=O)N[C@@H](CC(=O)O)C(=O)N[C@@H](Cc1ccccc1)C(N)=O [CCK-8, Asp-Tyr(SO3 H)-Met-Gly-Trp-Met-Asp-Phe-NH2, reference compound] | 70 | 25 | – | –
2 | CSCC[C@H](NC(=O)[C@H](Cc1ccc(OS(=O)(=O)O)cc1)NC=O)C(=O)NCC(=O)N[C@@H](Cc1c[nH]c2ccccc12)C(=O)N[C@@H](CCSC)C(=O)N[C@@H](CC(=O)O)C(=O)N[C@@H](Cc1ccccc1)C(N)=O [For-Tyr(SO3 H)-Met-Gly-Trp-Met-Asp-Phe-NH2] (HELM PEPTIDE1{[O=C[*:2]].[O=C([C@H](Cc1ccc(OS(=O)(=O)O)cc1)N[*:1])[*:2]].M.G.W.M.D.F.[am]}$$$$V2.0) | 100 | 66 | – | –
3 | CSCC[C@H](NC(=O)[C@H](Cc1ccc(OS(=O)(=O)O)cc1)NC(=O)[C@@H](N)CC(=O)O)C(=O)NCC(=O)N[C@@H](Cc1c[nH]c2ccccc12)C(=O)N[C@@H](CCSC)C(=O)N[C@@H](CC(=O)O)C(=O)N[C@@H](Cc1ccc(Cl)cc1)C(N)=O [H-As-Tyr(SO3 H)-Met-Gly-Trp-Met-Asp-Phe(4-Cl)-NH2] | 54 | – | 28 | –
4 | CSCC[C@H](NC(=O)[C@H](Cc1c[nH]c2ccccc12)NC(=O)CNC(=O)[C@@H](CCSC)NC(=O)[C@H](Cc1ccc(OS(=O)(=O)O)cc1)NC(=O)[C@@H](N)CC(=O)O)C(=O)N[C@@H](CC(=O)O)C(=O)N[C@@H](Cc1ccccc1)C(N)=O [H-Asp-Tyr(SO3 H)-DMet-Gly-Trp-Met-Asp-Phe-NH3] | 17 | – | – | –
5 | CC[C@H](C)[C@H](NC(=O)[C@H](Cc1ccc(OS(=O)(=O)O)cc1)NC(=O)[C@@H](N)CC(=O)O)C(=O)NCC(=O)N[C@@H](Cc1c[nH]c2ccccc12)C(=O)N[C@H](C(=O)N[C@@H](CC(=O)O)C(=O)N[C@@H](Cc1ccccc1)C(N)=O)[C@@H](C)CC [H-Asp-Tyr(SO3 H)-Ile-Gly-Trp-Ile-Asp-Phe-NH2] (HELM PEPTIDE1{D.[O=C([C@H](Cc1ccc(OS(=O)(=O)O)cc1)N[*:1])[*:2]].I.G.W.I.D.F.[am]}$$$$V2.0) | 85 | 20 | – | –
6 | CC(C)C[C@H](NC(=O)[C@H](Cc1ccc(OS(=O)(=O)O)cc1)NC(=O)[C@@H](N)CC(=O)O)C(=O)NCC(=O)N[C@@H](Cc1c[nH]c2ccccc12)C(=O)N[C@@H](CC(C)C)C(=O)N[C@@H](CC(=O)O)C(=O)N[C@@H](Cc1ccccc1)C(N)=O [H-Asp-Tyr(SO3 H)-Leu-Gly-Trp-Leu-Asp-Phe-NH2] | 89 | 24 | – | –
7 | NCCCC[C@H](NC(=O)[C@H](Cc1ccc(OS(=O)(=O)O)cc1)NC(=O)[C@@H](N)CC(=O)O)C(=O)NCC(=O)N[C@@H](Cc1c[nH]c2ccccc12)C(=O)N[C@@H](CCCCN)C(=O)N[C@@H](CC(=O)O)C(=O)N[C@@H](Cc1ccccc1)C(N)=O [H-Asp-Tyr(SO3 H)-Lys-Gly-Trp-Lys-Asp-Phe-NH2] (HELM PEPTIDE1{D.[O=C([C@H](Cc1ccc(OS(=O)(=O)O)cc1)N[*:1])[*:2]].K.G.W.K.D.F.[am]}$$$$V2.0) | – | – | – | 45
8 | CSCC[C@H](NC(=O)[C@H](Cc1c[nH]c2ccccc12)NC(=O)[C@@H](C)NC(=O)[C@H](CCSC)NC(=O)[C@H](Cc1ccc(OS(=O)(=O)O)cc1)NC(=O)[C@@H](N)CC(=O)O)C(=O)N[C@@H](CC(=O)O)C(=O)N[C@@H](Cc1ccccc1)C(N)=O [H-Asp-Tyr(SO3 H)-Met-DAla-Trp-Met-Asp-Phe-NH2] (HELM PEPTIDE1{D.[O=C([C@H](Cc1ccc(OS(=O)(=O)O)cc1)N[*:1])[*:2]].M.[dA].W.M.D.F.[am]}$$$$V2.0) | 16 | – | 18 | –
9 | CSCC[C@H](NC(=O)[C@H](Cc1ccc(OS(=O)(=O)O)cc1)NC(=O)[C@@H](N)CC(=O)O)C(=O)NCC(=O)N[C@H](Cc1c[nH]c2ccccc12)C(=O)N[C@@H](CCSC)C(=O)N[C@@H](CC(=O)O)C(=O)N[C@@H](Cc1ccccc1)C(N)=O [H-Asp-Tyr(SO3 H)-Met-Gly-DTrp-Met-Asp-Phe-NH2] | – | – | – | 42
10 | CSCC[C@H](NC(=O)[C@H](Cc1ccc(OS(=O)(=O)O)cc1)NC(=O)[C@@H](N)CC(=O)O)C(=O)NCC(=O)N[C@@H](Cc1c[nH]c2ccccc12)C(=O)N[C@H](CCSC)C(=O)N[C@@H](CC(=O)O)C(=O)N[C@@H](Cc1ccccc1)C(N)=O [H-Asp-Tyr(SO3 H)-Met-Gly-Trp-DMet-Asp-Phe-NH2] | – | – | – | 30
11 | CSCC[C@H](NC(=O)[C@H](Cc1ccc(OS(=O)(=O)O)cc1)NC(=O)[C@@H](N)CC(=O)O)C(=O)NCC(=O)N[C@@H](Cc1c[nH]c2ccccc12)C(=O)N[C@@H](CCSC)C(=O)N[C@@H](CC(N)=O)C(=O)N[C@@H](Cc1ccccc1)C(N)=O [H-Asp-Tyr(SO3 H)-Met-Gly-Trp-Met-Asn-Phe-NH2] (HELM PEPTIDE1{D.[O=C([C@H](Cc1ccc(OS(=O)(=O)O)cc1)N[*:1])[*:2]].M.G.W.M.N.F.[am]}$$$$V2.0) | – | – | – | 43
12 | CSCC[C@H](NC(=O)[C@H](Cc1ccc(OS(=O)(=O)O)cc1)NC(=O)[C@@H](N)CC(=O)O)C(=O)NCC(=O)N[C@@H](Cc1c[nH]c2ccccc12)C(=O)N[C@@H](CCSC)C(=O)N[C@@H](CC(=O)O)C(=O)N[C@@H](Cc1ccc(C)cc1)C(N)=O [H-Asp-Tyr(SO3 H)-Met-Gly-Trp-Met-Asp-Phe(4-Me)-NH2] | 57 | 18 | – | –
13 | CSCC[C@H](NC(=O)[C@H](Cc1ccc(OS(=O)(=O)O)cc1)NC(=O)[C@@H](N)CC(=O)O)C(=O)NCC(=O)N[C@@H](Cc1c[nH]c2ccccc12)C(=O)N[C@@H](CCSC)C(=O)N[C@@H](CC(=O)O)C(=O)N[C@@H](Cc1ccc(N)cc1)C(N)=O [H-Asp-Tyr(SO3 H)-Met-Gly-Trp-Met-Asp-Phe(4-NH2)-NH2] | 27 | – | – | –
14 | CSCC[C@H](NC(=O)[C@H](Cc1ccc(OS(=O)(=O)O)cc1)NC(=O)[C@@H](N)CC(=O)O)C(=O)NCC(=O)N[C@@H](Cc1c[nH]c2ccccc12)C(=O)N[C@@H](CCSC)C(=O)N[C@@H](CC(=O)O)C(=O)N[C@@H](Cc1ccc([N+](=O)[O-])cc1)C(N)=O [H-Asp-Tyr(SO3 H)-Met-Gly-Trp-Met-Asp-Phe(4-NO2)-NH2] | 43 | 17 | – | –
15 | CCNC(=O)[C@H](Cc1ccccc1)NC(=O)[C@H](CC(=O)O)NC(=O)[C@H](CCSC)NC(=O)[C@H](Cc1c[nH]c2ccccc12)NC(=O)CNC(=O)[C@H](CCSC)NC(=O)[C@H](Cc1ccc(OS(=O)(=O)O)cc1)NC(=O)[C@@H](N)CC(=O)O [H-Asp-Tyr(SO3 H)-Met-Gly-Trp-Met-Asp-Phe-NHEt] | 16 | – | – | –
16 | COc1ccc(C[C@H](NC(=O)[C@H](CC(=O)O)NC(=O)[C@H](CCSC)NC(=O)[C@H](Cc2c[nH]c3ccccc23)NC(=O)CNC(=O)[C@H](CCSC)NC(=O)[C@H](Cc2ccc(OS(=O)(=O)O)cc2)NC(=O)[C@@H](N)CC(=O)O)C(N)=O)cc1 [H-Asp-Tyr(SO3 H)-Met-Gly-Trp-Met-Asp-Tyr(Me)-NH2] (H-D[sY]MGWMDY(Me)-NH2) | – | – | – | 72
17 | CSCC[C@H](NC(=O)[C@H](Cc1ccc(OS(=O)(=O)O)cc1)NC(=O)[C@@H](N)CC(=O)O)C(=O)NCC(=O)N[C@@H](Cc1c[nH]c2ccccc12)C(=O)N[C@@H](CCSC)C(=O)N[C@H](CC(=O)O)C(=O)N[C@@H](Cc1ccccc1)C(N)=O [H-Asp-Tyr(SO3 H)-Met-Gly-Trp-Met-DAsp-Phe-NH2] | 32 | – | 15 | –
18 | CSCC[C@H](NC(=O)[C@H](Cc1ccc(OS(=O)(=O)O)cc1)NC(=O)[C@@H](N)CC(=O)O)C(=O)NCC(=O)N[C@@H](Cc1c[nH]c2ccccc12)C(=O)N[C@@H](CCSC)C(=O)N[C@@H](CC(=O)O)C(=O)N[C@H](Cc1ccccc1)C(N)=O [H-Asp-Tyr(SO3 H)-Met-Gly-Trp-Met] | 46 | – | 14 | –
19 | CSCC[C@H](NC(=O)[C@H](Cc1c[nH]c2ccccc12)NC(=O)CN(C)C(=O)[C@H](CCSC)NC(=O)[C@H](Cc1ccc(OS(=O)(=O)O)cc1)NC(=O)[C@@H](N)CC(=O)O)C(=O)N[C@@H](CC(=O)O)C(=O)N[C@@H](Cc1ccccc1)C(N)=O [H-Asp-Tyr(SO3 H)-Met-Sar-Trp-Met-Asp-Phe-NH2] | – | – | – | 55
20 | CSCC[C@H](NC(=O)[C@H](Cc1ccc(OS(=O)(=O)O)cc1)NC(=O)[C@@H](N)CC(=O)O)C(=O)NCC(=O)N[C@@H](Cc1ccc2ccccc2c1)C(=O)N[C@@H](CCSC)C(=O)N[C@@H](CC(=O)O)C(=O)N[C@@H](Cc1ccccc1)C(N)=O [H-Asp-Tyr(SO3)-Met-Gly-Nal-Met-Asp-Phe-NH2] (HELM PEPTIDE1{D.[O=C([C@H](Cc1ccc(OS(=O)(=O)O)cc1)N[*:1])[*:2]].M.G.[O=C([C@H](Cc1ccc2ccccc2c1)N[*:1])[*:2]].M.D.F.[am]}$$$$V2.0) | – | – | – | 52
21 | CNC(=O)[C@H](Cc1ccccc1)NC(=O)[C@H](CC(=O)O)NC(=O)[C@H](CCSC)NC(=O)[C@H](Cc1c[nH]c2ccccc12)NC(=O)CNC(=O)[C@H](CCSC)NC(=O)[C@H](Cc1ccc(OS(=O)(=O)O)cc1)NC(=O)[C@@H](N)CC(=O)O [H-Asp-Tyr(SO 3 H)-Met-Gly-Trp-Met-Asp-Phe-NHMe] | – | – | – | 13
